pIC50: −log10 of the molar value.
Target: T1, Human KDR (Homo sapiens, UniProt P35968)
T1 construct: expressed in transfected cells; host or cells: NIH3T3 cells (mouse fibroblasts)
Assay: Inhibition of KDR phosphorylation in human KDR-transfected NIH3T3 cells (ELISA)
Format: cell-based
Conditions: for Selection ratio (KDR phosphorylation IC50 / c-fms phosphorylation IC50): class 0-3; for pIC50: human KDR-transfected NIH3T3 cells, VEGF 100 ng/ml, ELISA, read-out: KDR phosphorylation 50% inhibitory concentration (IC50)
Outline: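 NIH3T3 cells transfected with human KDR, in 0.1% FCS medium, treated with compound 1 hr at 37° C, then stimulated with VEGF 100 ng/ml for 2 min. Lysate KDR phosphorylation measured by anti-phosphotyrosine capture/anti-KDR ELISA (A450); IC50 from inhibition normalized between VEGF-stimulated and unstimulated wells.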

T1 sequence (P35968 20-1356): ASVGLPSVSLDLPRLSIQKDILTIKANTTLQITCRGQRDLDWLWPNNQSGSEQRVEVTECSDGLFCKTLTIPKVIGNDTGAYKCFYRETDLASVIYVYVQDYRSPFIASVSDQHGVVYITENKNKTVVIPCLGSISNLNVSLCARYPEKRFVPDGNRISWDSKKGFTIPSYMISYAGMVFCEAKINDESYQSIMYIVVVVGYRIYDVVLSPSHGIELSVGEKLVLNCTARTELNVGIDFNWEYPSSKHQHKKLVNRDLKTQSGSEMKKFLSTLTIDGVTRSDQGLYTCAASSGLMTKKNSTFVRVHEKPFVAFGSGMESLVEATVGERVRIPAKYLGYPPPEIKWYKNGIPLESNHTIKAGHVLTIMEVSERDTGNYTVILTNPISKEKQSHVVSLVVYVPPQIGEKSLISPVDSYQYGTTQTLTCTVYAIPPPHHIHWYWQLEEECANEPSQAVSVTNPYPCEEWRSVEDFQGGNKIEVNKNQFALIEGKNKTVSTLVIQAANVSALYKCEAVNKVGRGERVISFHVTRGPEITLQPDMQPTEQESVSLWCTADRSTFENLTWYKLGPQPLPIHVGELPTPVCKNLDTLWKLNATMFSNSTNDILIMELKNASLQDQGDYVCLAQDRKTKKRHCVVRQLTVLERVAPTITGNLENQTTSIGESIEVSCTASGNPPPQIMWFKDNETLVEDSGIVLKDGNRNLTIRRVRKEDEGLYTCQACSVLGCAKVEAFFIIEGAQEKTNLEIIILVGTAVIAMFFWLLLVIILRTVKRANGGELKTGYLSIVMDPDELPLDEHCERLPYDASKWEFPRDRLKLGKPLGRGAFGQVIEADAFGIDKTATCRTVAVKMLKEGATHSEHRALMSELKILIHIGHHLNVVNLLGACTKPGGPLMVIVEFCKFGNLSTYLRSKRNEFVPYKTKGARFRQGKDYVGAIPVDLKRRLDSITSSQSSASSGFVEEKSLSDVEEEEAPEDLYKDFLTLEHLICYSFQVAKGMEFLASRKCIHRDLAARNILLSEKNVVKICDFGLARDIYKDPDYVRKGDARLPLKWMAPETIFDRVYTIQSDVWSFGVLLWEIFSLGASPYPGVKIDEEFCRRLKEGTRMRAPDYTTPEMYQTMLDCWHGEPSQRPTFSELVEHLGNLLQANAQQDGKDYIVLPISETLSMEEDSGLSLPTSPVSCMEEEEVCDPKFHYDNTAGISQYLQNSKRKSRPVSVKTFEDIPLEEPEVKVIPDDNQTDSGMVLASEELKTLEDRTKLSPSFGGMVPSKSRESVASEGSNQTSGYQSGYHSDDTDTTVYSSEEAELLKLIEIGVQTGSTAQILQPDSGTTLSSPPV

| Compound | Selection ratio (KDR phosphorylation IC50 / c-fms phosphorylation IC50) | pIC50 |
| --- | --- | --- |
| COc1cc2nccc(Oc3ccc(NC(=O)N[C@@H](C)c4ccc(F)cc4)c(C)c3C)c2cc1OC [Example 26, N-{4-[(6,7-Dimethoxy-4-quinolyl)oxy]-2,3-dimethylphenyl}-N′-[(1S)-1-(4-fluorophenyl)ethyl]urea] | 1 (when the value was 5 or more) | 6.81 |
| COc1cc2nccc(Oc3ccc(NC(=O)N[C@@H](C)c4ccc(F)cc4)cc3OC)c2cc1OC [Example 23, N-{4-[(6,7-Dimethoxy-4-quinolyl)oxy]-3-methoxyphenyl}-N′-[(1S)-1-(4-fluorophenyl)ethyl]urea] | 3 (when the value was 50 or more) | 6.22 |
| COc1cc2nccc(Oc3ccc(NC(=O)NC(C)c4ccc(F)cc4)c(C)c3C)c2cc1OC (stereo not drawn) [Example 25, N-{4-[(6,7-Dimethoxy-4-quinolyl)oxy]-2,3-dimethylphenyl}-N′-[1-(4-fluorophenyl)ethyl]urea] | 0 (KDR phosphorylation 50% inhibitory concentration [μM]/c-fms phosphorylation 50% inhibitory concentration [μM] was less than 5) | 8.46 |
| COc1cc2nccc(Oc3ccc(NC(=O)N[C@H](C)c4ccc(F)cc4)c(C)c3C)c2cc1OC [Example 27, N-{4-[(6,7-Dimethoxy-4-quinolyl)oxy]-2,3-dimethylphenyl}-N′-[(1R)-1-(4-fluorophenyl)ethyl]urea] | 0 (KDR phosphorylation 50% inhibitory concentration [μM]/c-fms phosphorylation 50% inhibitory concentration [μM] was less than 5) | 8.70 |
| COc1cc2c(Oc3ccc(NC(=O)NC(C)c4ccc(F)cc4)cc3F)ccnc2cc1OCCCN1CCOCC1 (stereo not drawn) [Example 64, N-(3-Fluoro-4-{[6-methoxy-7-(3-morpholinopropoxy)-4-quinolyl]oxy}phenyl)-N′-[1-(4-fluorophenyl)ethyl]urea] | 0 (KDR phosphorylation 50% inhibitory concentration [μM]/c-fms phosphorylation 50% inhibitory concentration [μM] was less than 5) | 8.01 |
| COc1cc2nccc(Oc3ccc(NC(=O)NC(C)c4nccs4)c(C(F)(F)F)c3)c2cc1OC (stereo not drawn) [Example 83, N-[4-[(6,7-Dimethoxy-4-quinolyl)oxy]-2-(trifluoromethyl)phenyl]-N′-[1-(1,3-thiazol-2-yl)ethyl]urea] | 0 (KDR phosphorylation 50% inhibitory concentration [μM]/c-fms phosphorylation 50% inhibitory concentration [μM] was less than 5) | 8.10 |
| COc1cc2nccc(Oc3ccc(NC(=O)NC(C)c4ncc(C)s4)c(C(F)(F)F)c3)c2cc1OC (stereo not drawn) [Example 104, N-[4-[(6,7-Dimethoxy-4-quinolyl)oxy]-2-(trifluoromethyl)phenyl]-N′-[1-(5-methyl-1,3-thiazol-2-yl)ethyl]urea] | 0 (KDR phosphorylation 50% inhibitory concentration [μM]/c-fms phosphorylation 50% inhibitory concentration [μM] was less than 5) | 7.44 |
| COc1cc2nccc(Oc3ccc(NC(=O)NC(C)c4nc(C)cs4)c(F)c3)c2cc1OC (stereo not drawn) [Example 88, N-{4-[(6,7-Dimethoxy-4-quinolyl)oxy]-2-fluorophenyl}-N′-[1-(4-methyl-1,3-thiazol-2-yl)ethyl]urea] | 0 (KDR phosphorylation 50% inhibitory concentration [μM]/c-fms phosphorylation 50% inhibitory concentration [μM] was less than 5) | 8.06 |
| COc1cc2nccc(Oc3ccc(NC(=O)NC(C)c4ccc(F)cc4)c(C(F)(F)F)c3)c2cc1OC (stereo not drawn) [Example 19, N-[4-[(6,7-Dimethoxy-4-quinolyl)oxy]-2-(trifluoromethyl)phenyl]-N′-[1-(4-fluorophenyl)ethyl]urea] | 0 (KDR phosphorylation 50% inhibitory concentration [μM]/c-fms phosphorylation 50% inhibitory concentration [μM] was less than 5) | 8.82 |
| COc1cc2nccc(Oc3ccc(NC(=O)N[C@H](C)c4cccc(Br)c4)c(C(F)(F)F)c3)c2cc1OC [Example 60, N-[(1R)-1-(3-Bromophenyl)ethyl]-N′-[4-[(6,7-dimethoxy-4-quinolyl)oxy]-2-(trifluoromethyl)phenyl]urea] | 0 (KDR phosphorylation 50% inhibitory concentration [μM]/c-fms phosphorylation 50% inhibitory concentration [μM] was less than 5) | 8.72 |
| COc1cc2nccc(Oc3ccc(NC(=O)NC(C)c4nccs4)cc3)c2cc1OC (stereo not drawn) [Example 77, N-{4-[(6,7-Dimethoxy-4-quinolyl)oxy]phenyl}-N′-[1-(1,3-thiazol-2-yl)ethyl]urea] | 2 (when the value was 10 or more) | 6.99 |
| COc1cc2c(Oc3ccc(NC(=O)NC(C)c4ccc(F)c(F)c4)c(F)c3)ccnc2cc1OCCCN1CCOCC1 (stereo not drawn) [Example 68, N-[1-(3,4-Difluorophenyl)ethyl]-N′-(2-fluoro-4-{[6-methoxy-7-(3-morpholinopropoxy)-4-quinolyl]oxy}phenyl)urea] | 0 (KDR phosphorylation 50% inhibitory concentration [μM]/c-fms phosphorylation 50% inhibitory concentration [μM] was less than 5) | 8.25 |
| COc1cc2nccc(Oc3ccc(NC(=O)NC(C)c4ccc(F)cc4)cc3Cl)c2cc1OC (stereo not drawn) [Example 10, N-{3-Chloro-4-[(6,7-dimethoxy-4-quinolyl)oxy]phenyl}-N′-[1-(4-fluorophenyl)ethyl]urea] | 0 (KDR phosphorylation 50% inhibitory concentration [μM]/c-fms phosphorylation 50% inhibitory concentration [μM] was less than 5) | 8.52 |
| COc1cc2nccc(Oc3ccc(NC(=O)NC(C)c4ccc(F)cc4)cc3F)c2cc1OC (stereo not drawn) [Example 31, N-{4-[(6,7-Dimethoxy-4-quinolyl)oxy]-3-fluorophenyl}-N′-[1-(4-fluorophenyl)ethyl]urea] | 0 (KDR phosphorylation 50% inhibitory concentration [μM]/c-fms phosphorylation 50% inhibitory concentration [μM] was less than 5) | 9.00 |
| COc1cc2nccc(Oc3ccc(NC(=O)NC(C)c4ncc(C)s4)c(F)c3)c2cc1OC (stereo not drawn) [Example 101, N-{4-[(6,7-Dimethoxy-4-quinolyl)oxy]-2-fluorophenyl}-N′-[1-(5-methyl-1,3-thiazol-2-yl)ethyl]urea] | 2 (when the value was 10 or more) | 6.62 |
| COc1cc2nccc(Oc3ccc(NC(=O)N[C@@H](C)c4ccc(F)cc4)cc3Cl)c2cc1OC [Example 11, N-{3-Chloro-4-[(6,7-dimethoxy-4-quinolyl)oxy]phenyl}-N′-[(1S)-1-(4-fluorophenyl)ethyl]urea] | 2 (when the value was 10 or more) | 6.91 |
| COc1cc2nccc(Oc3cc(C)c(NC(=O)N[C@H](C)c4ccc(F)cc4)cc3C)c2cc1OC [Example 9, N-{4-[(6,7-Dimethoxy-4-quinolyl)oxy]-2,5-dimethylphenyl}-N′-[(1R)-1-(4-fluorophenyl)ethyl]urea] | 0 (KDR phosphorylation 50% inhibitory concentration [μM]/c-fms phosphorylation 50% inhibitory concentration [μM] was less than 5) | 8.57 |
| COc1cc2nccc(Oc3ccc(NC(=O)N[C@H](C)c4cccc(Br)c4)c(C)c3)c2cc1OC [Example 58, N-[(1R)-1-(3-Bromophenyl)ethyl]-N′-{4-[(6,7-dimethoxy-4-quinolyl)oxy]-2-methylphenyl}urea] | 0 (KDR phosphorylation 50% inhibitory concentration [μM]/c-fms phosphorylation 50% inhibitory concentration [μM] was less than 5) | 8.68 |
| COc1cc2nccc(Oc3ccc(NC(=O)N[C@@H](C)c4nccs4)c(F)c3)c2cc1OC [Example 71, N-{4-[(6,7-Dimethoxy-4-quinolyl)oxy]-2-fluorophenyl}-N′-[(1S)-1-(1,3-thiazol-2-yl)ethyl]urea] | 2 (when the value was 10 or more) | 7.40 |
| COc1cc2nccc(Oc3ccc(NC(=O)NC(C)c4nc(C)cs4)cc3F)c2cc1OC (stereo not drawn) [Example 89, N-{4-[(6,7-Dimethoxy-4-quinolyl)oxy]-3-fluorophenyl}-N′-[1-(4-methyl-1,3-thiazol-2-yl)ethyl]urea] | 1 (when the value was 5 or more) | 7.76 |
| COc1cc2nccc(Oc3ccc(NC(=O)NC(C)c4nccs4)c(F)c3)c2cc1OC (stereo not drawn) [Example 70, N-{4-[(6,7-Dimethoxy-4-quinolyl)oxy]-2-fluorophenyl}-N′-[1-(1,3-thiazol-2-yl)ethyl]urea] | 2 (when the value was 10 or more) | 7.26 |
| COc1cc2nccc(Oc3ccc(NC(=O)N[C@H](C)c4ccc(F)cc4)c(F)c3)c2cc1OC [Example 30, N-{4-[(6,7-Dimethoxy-4-quinolyl)oxy]-2-fluorophenyl}-N′-[(1R)-1-(4-fluorophenyl)ethyl]urea] | 0 (KDR phosphorylation 50% inhibitory concentration [μM]/c-fms phosphorylation 50% inhibitory concentration [μM] was less than 5) | > 9.00 |
| COc1cc2nccc(Oc3ccc(NC(=O)NC(C)c4ccc(F)cc4)c(F)c3)c2cc1OC (stereo not drawn) [Example 28, N-{4-[(6,7-Dimethoxy-4-quinolyl)oxy]-2-fluorophenyl}-N′-[1-(4-fluorophenyl)ethyl]urea] | 0 (KDR phosphorylation 50% inhibitory concentration [μM]/c-fms phosphorylation 50% inhibitory concentration [μM] was less than 5) | > 9.00 |
| COc1cc2nccc(Oc3cc(C)c(NC(=O)N[C@H](C)c4cccc(Br)c4)cc3C)c2cc1OC [Example 56, N-[(1R)-1-(3-Bromophenyl)ethyl]-N′-{4-[(6,7-dimethoxy-4-quinolyl)oxy]-2,5-dimethylphenyl}urea] | 0 (KDR phosphorylation 50% inhibitory concentration [μM]/c-fms phosphorylation 50% inhibitory concentration [μM] was less than 5) | 8.02 |

From US7598258B2, “Quinoline derivatives and quinazoline derivatives inhibiting autophosphorylation of macrophage colony stimulating factor receptor” (Kirin Beer Kabushiki Kaisha, priority 2002, dated 2009)
